Measurements published in patent publication US9775854B2 (Indiana University Research and Technology Corp., priority 2006, dated 2017).
“Also recorded” adds a separate entry of the source.

Tests used:
[1] = test system: IDUA and p53 genes; conditions: cited from earlier work
[2] = test system: LLC-PK1 proximal tubule cells
Description: (§1) Differences in necrosis, apoptosis, and cell density among the various congeners on the human and porcine cell lines were determined using an ANOVA function with Systat 11 software (Systat Software, Point Richmond, Calif.). […] All reported values are mean±SEM.
The nuclear dye propidium iodide is cell impermeant and labels only necrotic cells, characterized by permeable cell membranes; co-localization of the two dyes gives a reddish-pink color. […] Values are means±SEM. Bar=approximately 10 microns.
The nuclear dyes propidium iodide and Hoechst 33342 were used as markers for necrosis and apoptosis, respectively.

[3] = Nephrotoxicity in rats: serum creatinine after six daily doses
Description: as §1
We specifically used six daily doses for these studies to allow additional time for the C2 component to induce injury, because it is widely known that serum creatinine rises early in this model when native gentamicin is used.

[4] = test system: proximal convoluted tubules; experiment: Kidney morphology and histology in rats (H&E, PAS, modified Jablonski score, gentamicin immunofluorescence); format: in vivo, Sprague-Dawley rats; conditions: six doses
Description: Morphologic evaluation of injury caused by gentamicin and its congeners was assessed by grading the extent of necrosis of the proximal convoluted tubules. Injury scores were assigned on the basis of the predominant pattern present. For indirect immunofluorescence, 100 μm-thick sections were cut on a vibratome and stained with the monoclonal anti-gentamicin antibody (Biodesign International, Saco, Me.) and a fluorescein-conjugated secondary antibody (Jackson Immunoresearch, West Grove, Pa.) and lightly counterstained with Alexa 647 phalloidin (Molecular Probes) to localize filamentous actin for visualization using confocal microscopy.
Histological sections were viewed with a Wide field Nikon microscope with an attached color CCD camera (Nikon, Melville, N.Y.). Fluorescence images were acquired using a Bio-Rad MRC 1024 confocal microscope (Bio-Rad, Hercules, Calif.) on a Nikon platform (The Fryer Co., Huntley, Ill.). Co-localization studies with Texas Red dextran, FITC-Helixpontatia, and gentamicin were conducted on a Zeiss 510 confocal microscope with images illuminated and acquired sequentially to eliminate bleed-over emissions from the different fluorescence emission spectra.
Again, these studies were conducted after 7 days of exposure, or six doses of gentamicin. This was to ensure that we would see any delayed nephrotoxicity from the […]. These studies occurred at a time when the native gentamicin-treated animals were recovering, as evidenced by a reduction in serum creatinine levels in these animals. Therefore, these studies likely underestimate the actual histological damage that occurred early on in animals treated with native gentamicin. […] In addition, large perinuclear vacuoles (FIG. 3 B, arrowheads) could be seen in the renal corticol area. […] Here, proximal tubules from native gentamicin treated rats contained cast material and shed cells in the lumen (thick arrow). In addition, many of the proximal table cells contained large vacuoles that localized around the nucleus (FIG. 3 B, arrowheads).
Referring now to FIG. 3 D-E, thin histological sections also were stained with PAS to localize the glycocalyx that was associated with the brush border membrane of proximal tubules. […]
Referring now to FIG. 3 G-H, when tissues from rats that were exposed to the native commercial gentamicin compound or the […] of gentamicin were processed for indirect immunofluorescence localization of gentamicin, a difference in the intracellular accumulation and distribution emerged. […] Tissue sections from rats that were treated with normal saline alone and processed identically for immunofluorescence localization produced no fluorescence associated with gentamicin localization (data not shown).

[5] = test system: COS7 cells; experiment: Cytotoxicity (cell death, % inviability) in COS7 cells; format: cell-based
Description: Gentamicin and various congeners isolated and purified by, for example, the HPLC techniques outlined in Sandoval et al. were tested to assess their level of cytotoxicity. Briefly, COS7 cells were grown in the presence of either 200 or 500 ug/ml of one of the following test compounds, the C1 or the C2 congeners of gentamicin or native gentamicin. As a control still another batch of COS7 cells were grown in absence of all of the test compounds.
Referring now to FIG. 6 cell inviability was determined for cells exposed to no test compound, native gentamicin or a congener of gentamicin; in this graph a high value indicate […]. Cell death (% inviability) was determined for each of the six conditions.

[6] = test system: UGAC stop codon; experiment: Stop codon readthrough assay; format: cell-based; conditions: 200 ug/ml, 24 hours
Description: The cells were exposed to 200 ug/ml of each compound for 24 hours.
The method used to assess readthrough is as follows.
In order to determine the optimal concentrations of the aminoglycosides to use in the mammalian translation system, increasing amounts of each aminoglycoside were added to a rabbit reticulocyte translation system while expressing the QX(N) (UGAC) construct. The effect of aminoglycoside addition on total protein synthesis was monitored by comparing the total amount of proteins synthesized in the presence and absence of various aminoglycosides. A range of aminoglycoside concentrations was then determined that allowed a maximal amount of termination suppression without inhibiting total protein synthesis more than two- to threefold. In vitro translation reactions were carried out using the TNT coupled transcription/translation system (Promega). […] The gel was dried and subjected to PhosphorImager analysis in order to quantitate the amount of truncated and full-length protein species. The percentage of readthrough was then calculated as the amount of full-length protein/(truncated+full-length species)×100.

[7] = test system: viable cells; experiment: Cytotoxicity by dye exclusion assay (FIG. 7); format: cell-based; conditions: viable cells treated vs untreated
Description: FIG. 7 also includes information on the cell toxicity. Cytotoxicity was measured by comparing the number of viable cells in treated and untreated samples using a dye exclusion assay of the compounds tested. […] (the […]) was the most toxic compound tested 4.4 fold more toxic than the control (no added aminoglycoside) followed by […] (native gentamicin) 1.7 times more toxic than the control; the least toxic compound tested was […]

[8] = test system: dystrophin; experiment: Dystrophin immunohistochemistry in mdx mice after i.m. treatment; format: in vivo; conditions: about 1 or 5 mg/day, 7 days
Description: Eight mdx mice are treated with I.M. injections of either gentamicin or the […] of gentamicin (C2 in Formula I) four of the mice receive either gentamicin or the […] at a dose of about 1 mg/day and the other four mice receive the same compounds at a dose of about 5 mg/day. The animals are dosed over a period of 7 days. […] All mice are sacrificed, their skeletal muscle and their hearts are frozen and cryostat sectioned. The presence of dystrophin in these sections is investigated by immunohistochemistry. Strong dystrophin immunostaining is observed in the normal skeletal and heart muscles. In the untreated mdx muscles, dystrophin immunostaining is observed only in a few revertant fibers. […] The dystrophin staining is less intense in the muscles of mice treated with […]. Therefore a dose of about 8 to 40 mg per Kg of body weight per day of either gentamicin or the […] of gentamicin successfully suppresses the premature stop codon by inserting an amino acid, and continuing translation of […] nucleic acids. Subcutaneous and intravenous administration will provide the same results. The duration of the course of treatment may vary. […]

[9] = test system: Bacillus subtilus; experiment: Bactericidal properties against Bacillus subtilus; format: cell-based
Description: (§2) Referring now to Formula 1 and FIG. 1, 4 congeners can be isolated and purified from native gentamicin. Methods for isolating and purifying congeners include the following method. Briefly, separation of native gentamicin was carried out using a C18 column (250×4.60 mm) and the chromatograms was developed using a Waters 600e HPLC pump (Milford, Mass.). A gradient of 100% of a 0.1% (vol/vol) mixture of tri-fluoro-acetic acid in acetonitrile was used to develop the chronogram. […] There was no overlap between adjacent peaks. For all studies, the same lot of gentamicin was used. This ensured that the results obtained were independent of potential alteration in the ratio of gentamicin components. […] For additional discussion of this methodology please see, for example, Sandoval, et al.

[10] = test system: multi-drug resistant form of Klebsiella pneumoniae; experiment: Bactericidal properties against multi-drug resistant Klebsiella pneumoniae; format: cell-based
Description: as §2

[11] = test system: Gram-positive and multi-drug-resistant Gram-negative bacteria; conditions: Sandoval et al.; cited from earlier work
[12] = test system: LLC-PK1 proximal tubule cells; conditions: results provided in Sandoval et al.; cited from earlier work
[13] = test system: LLC-PK1 cells; experiment: Long-term (24 h) exposure: lysosome and Golgi complex localization in LLC-PK1 cells; conditions: 24 h of continuous exposure
Description: During this period of exposure to native gentamicin or the congeners, lysosomes were labeled by adding a 10,000 molecular weight rhodamine dextran to the culture medium (0.5 mg/ml; Molecular Probes). The cells then were fixed and stained for indirect immunofluorescence and visualized via confocal microscopy. Briefly, the Golgi complex was localized with a fluorescein-conjugated lectin from Helix pornotia at 5 μg/ml (EY Laboratories, San Mateo, Calif.) diluted in solution that contained the CY-5 conjugated secondary antibody that was used in the indirect immunolocalization of gentamicin. Visualization of nonlysosomal, cytosolic gentamicin was carried out as described previously, using a Tyramide Signal Amplification (Molecular Probes).
In order to study long-term differences in the intracellular distribution of gentamicin, we undertook additional study of gentamicin distribution in LLC-PK1 cells. […]

[14] = LLC-PK1 cells, 24 hours of exposure

Compound: NC[C@H]1O[C@H](O[C@H]2[C@H](O)[C@@H](O[C@H]3O[C@H](CO)[C@@H](O)[C@H](N)[C@H]3O)[C@H](N)C[C@@H]2N)[C@H](N)C[C@@H]1O [Tobramicin]
- premature stop codons overcome [1]: not

Compound: gentamicin C2
- cell density, % of untreated (control) values [2, 14]: 80.3±5.7%
- percentage of cell death (toxicity index) [2, 14]: 3.1±1.3%
- cytotoxicity in cell culture (in words) ([2]; cultured cells, 24 hours of continual exposure): minimal cytotoxicity; also recorded: markedly reduced toxicity; also recorded: minimal evidence of toxicity
- change in serum creatinine (in words) ([3]; 100 mg/kg per day intraperitoneally, six daily doses): no elevation in serum creatinine
- serum creatinine ([3]; 100 mg/kg per day intraperitoneally, six daily doses, up to 24 hours after the last injection): ≤ 0.2 mg/dL
- functional and pathologic changes characteristic of gentamicin nephrotoxicity ([3]; animal studies): failed to induce
- renal injury, modified Jablonski score ([4]; rat cortex, compared with native gentamicin): significantly reduced; also recorded: significantly lower
- kidney morphology, H&E-stained sections ([4]; rats, 7 days of exposure): normal morphology
- lysosomal morphology in proximal tubule cells, indirect immunofluorescence ([4]; rats, 7 days of exposure): normal lysosomal morphology
- proximal tubular brush border, PAS staining ([4]; rats, 7 days of exposure): more abundant and enriched PAS staining
- toxicity (cell death, % inviability) ([5]; 200 ug/ml): virtually no toxicity
- toxicity (cell death, % inviability) ([5]; 500 ug/ml): only very minimal toxicity
- readthrough of the UGAC stop codon [6]: intermediate effect on readthrough
- toxicity relative to control (no added aminoglycoside) [7]: no more toxic than the control
- dystrophin immunostaining in skeletal and heart muscle [8]: detected by immunohistochemistry on all muscle fibers and all heart muscle cells
- bactericidal properties [9]: excellent bactericidal properties
- bactericidal properties [10]: excellent bactericidal properties
- bactericidal potency compared with native gentamicin and other congeners [11]: as potent a bactericide
- toxicity in cell culture [12]: nontoxic
- Golgi complex staining with Helix pomatia lectin [13]: faint
- lysosome appearance (Texas Red dextran) [13]: small, discrete vesicles found throughout the cellular cytosol

Compound: NCC[C@H](O)C(=O)N[C@@H]1C[C@H](N)[C@@H](O[C@H]2O[C@H](CN)[C@@H](O)[C@H](O)[C@H]2O)[C@H](O)[C@H]1O[C@H]1O[C@H](CO)[C@@H](O)[C@H](N)[C@H]1O [Amikacin]
- premature stop codons overcome [1]: can be overcome

Compound: gentamicin C1 [reference compound]
- toxicity ranking (cell death, % inviability) ([5]; 200 or 500 ug/ml): greatest toxicity
- readthrough of the UGAC stop codon [6]: minimal readthrough
- toxicity relative to control (no added aminoglycoside) [7]: 4.4 fold
